Laboratory results as given in ChEMBL document CHEMBL4610106, “Identification of the Clinical Development Candidate MRTX849, a Covalent KRASG12C Inhibitor for the Treatment of Cancer” (J Med Chem, 2020).
≈ marks a conversion by molar mass, not a printed value.

How the values were obtained:
[1] = Cmax in CD1 mouse at 10 mg/kg, po; type: ADME, organism-based; parameters: dose 10 mg/kg, route oral; settings: in vivo
[2] = Tmax in CD1 mouse at 10 mg/kg, po; type: ADME, organism-based; settings: in vivo
GTPase KRas = GTPase KRas (Homo sapiens, UniProt P01116, G12C)
[3] = Oral bioavailability in CD1 mouse at 10 mg/kg; type: ADME, organism-based; settings: in vivo
[4] = Half life in presence of GSH in phosphate buffer at 1 uM at 37 degC by LC-MS/M analysis; type: physicochemical; settings: phosphate buffer with GSH
[5] = Volume of distribution at steady state in CD1 mouse at 3 mg/kg, iv; type: ADME, organism-based; settings: in vivo, read-out: Vdss
[6] = AUC (infinity) in CD1 mouse at 10 mg/kg, po; type: ADME, organism-based; parameters: dose 10 mg/kg, route oral, time infinity; settings: in vivo
[7] = Half life in CD1 mouse at 3 mg/kg, iv; type: ADME, organism-based; settings: in vivo
[8] = test system: GTPase KRas (Homo sapiens), P01116 [G12C]; assay: Inhibition of KRAS G12C mutant in human NCI-H358 cells assessed as reduction in ERK phosphorylation incubated for 3 hrs by in-cell western method
[9] = Hepatic extraction ratio in human hepatocytes at 10 uM incubated for 2 hrs by LC-MS analysis; type: ADME, cell-based, Hepatocyte; settings: read-out: ERH
[10] = Permeability ratio in pig LLC-PK1 cells; type: ADME, cell-based, Sus scrofa
[11] = Solubility in FaSSIF at pH 6.5; type: physicochemical
[12] = Apparent permeability in pig LLC-PK1 cells; type: ADME, cell-based, Sus scrofa; settings: read-out: permeability
[13] = Protein binding in mouse plasma; type: ADME, cell-free; settings: read-out: PPB (converted)
[14] = Protein binding in human plasma; type: ADME, cell-free; settings: read-out: PPB (converted)
[15] = Hepatic extraction ratio in human liver microsomes; type: ADME, Microsome; settings: read-out: ERH
[16] = Drug metabolism in mouse hepatocytes assessed as parent compound remaining at 10 uM incubated for 2 hrs by LC-MS analysis; type: ADME, cell-based, Hepatocyte; settings: read-out: Stability
[17] = Half life in mouse whole blood at 5 uM by LC-MS/MS analysis; type: ADME, tissue-based
[18] = Half life in dog whole blood at 5 uM by LC-MS/MS analysis; type: ADME, tissue-based, Canis lupus familiaris
[19] = Half life in human whole blood at 5 uM by LC-MS/MS analysis; type: ADME, tissue-based
[20] = Oral bioavailability in beagle dog at 10 mg/kg; type: ADME, organism-based, Canis lupus familiaris; settings: in vivo
[21] = Half life in beagle dog at 3 mg/kg, iv; type: ADME, organism-based, Canis lupus familiaris; settings: in vivo
[22] = Volume of distribution at steady state in beagle dog at 3 mg/kg, iv; type: ADME, organism-based, Canis lupus familiaris; settings: in vivo, read-out: Vdss
[23] = Tmax in beagle dog at 10 mg/kg, po; type: ADME, organism-based, Canis lupus familiaris; settings: in vivo
MIA PaCa-2 [24] = assay: Antitumor activity against human MIAPaCa2 cells xenografted in athymic nude-Foxn1nu mouse assessed as induction of tumor regression at 30 mg/kg, po dosed daily via gavage for 16 days; type: functional
[25] = biological target: Glutathione S-transferase P (Homo sapiens) (UniProt P09211); assay: Drug metabolism in human whole blood assessed as GSTP1-1-mediated GSH conjugation; type: tissue-based
[26] = Oral bioavailability in CD1 mouse at 30 mg/kg; type: ADME, organism-based; settings: in vivo
[27] = Cmax in beagle dog at 10 mg/kg, po; type: ADME, organism-based, Canis lupus familiaris; parameters: dose 10 mg/kg, route oral; settings: in vivo
MIA PaCa-2 [28] = assay: Antitumor activity against human MIAPaCa2 cells xenografted in athymic nude-Foxn1nu mouse assessed as induction of tumor regression at 30 mg/kg, po dosed daily via gavage for 16 days followed by drug cessation and measured up to 40 days; type: functional
[29] = AUC (infinity) in beagle dog at 10 mg/kg, po; type: ADME, organism-based, Canis lupus familiaris; parameters: dose 10 mg/kg, time infinity, route oral; settings: in vivo
[30] = AUC (infinity) in CD1 mouse at 30 mg/kg, po; type: ADME, organism-based; parameters: dose 30 mg/kg, time infinity, route oral; settings: in vivo
[31] = Tmax in CD1 mouse at 30 mg/kg, po; type: ADME, organism-based; settings: in vivo
[32] = Cmax in CD1 mouse at 30 mg/kg, po; type: ADME, organism-based; parameters: dose 30 mg/kg, route oral; settings: in vivo
[33] = Clearance in CD1 mouse at 3 mg/kg, iv; type: ADME, organism-based; settings: in vivo
[34] = test system: GTPase KRas (Homo sapiens), P01116 [G12C]; assay: In-vivo target engagement at KRAS G12C mutant in athymic nude-Foxn1nu mouse xenografted with human NCI-H358 cells assessed as KRAS G12C modification level in tumor lysate at 100 mg/kg, po dosed via gavage as single administration measured after 6 hrs by LC-MS analysis relative to contro; type: functional, organism-based; settings: Neoplasm
[35] = test system: GTPase KRas (Homo sapiens), P01116 [G12C]; assay: In-vivo target engagement at KRAS G12C mutant in athymic nude-Foxn1nu mouse xenografted with human NCI-H358 cells assessed as KRAS G12C modification level in tumor lysate at 10 mg/kg, po dosed via gavage as single administration measured after 6 hrs by LC-MS analysis relative to control; type: functional, organism-based; settings: Neoplasm
[36] = test system: GTPase KRas (Homo sapiens), P01116 [G12C]; assay: In-vivo target engagement at KRAS G12C mutant in athymic nude-Foxn1nu mouse xenografted with human NCI-H358 cells assessed as KRAS G12C modification level in tumor lysate at 30 mg/kg, po dosed via gavage as single administration measured after 6 hrs by LC-MS analysis relative to control; type: functional, organism-based; settings: Neoplasm
[37] = Clearance in beagle dog at 3 mg/kg, iv; type: ADME, organism-based, Canis lupus familiaris; settings: in vivo

GTPase KRas (Homo sapiens), P01116 [G12C], sequence (P01116 whole entry G12C): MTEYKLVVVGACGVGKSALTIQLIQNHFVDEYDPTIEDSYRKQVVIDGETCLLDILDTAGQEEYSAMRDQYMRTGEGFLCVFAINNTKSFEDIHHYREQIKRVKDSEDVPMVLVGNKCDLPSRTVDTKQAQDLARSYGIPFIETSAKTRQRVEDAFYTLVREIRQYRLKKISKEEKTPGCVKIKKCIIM
GTPase KRas, sequence (P01116 whole entry G12C): as above
Glutathione S-transferase P (Homo sapiens), sequence (P09211 2-210 limits assumed): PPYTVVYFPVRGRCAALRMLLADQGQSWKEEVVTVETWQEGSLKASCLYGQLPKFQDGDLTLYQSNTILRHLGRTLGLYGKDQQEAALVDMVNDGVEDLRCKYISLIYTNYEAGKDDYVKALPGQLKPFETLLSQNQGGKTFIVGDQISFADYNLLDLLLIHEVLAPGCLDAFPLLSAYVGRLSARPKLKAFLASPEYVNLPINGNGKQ

## C=CC(=O)N1CCN(c2nc(OC[C@@H]3CCCN3C)nc3c2CCN(c2cccc4ccccc24)C3)CC1
[1]
  Cmax: 0.131 µg/mL
[2]
  Tmax: 0.5 h
GTPase KRas
  IC50: 4.4 µM
[3]
  F: 13.9%
[4]
  half-life at 1 µM: 17 h
[5]
  Vd: 0.996 L/kg
[6]
  AUC: 0.302 µg·h/mL
[7]
  half-life: 0.908 h

## C=CC(=O)N1CCN(c2nc(OC[C@@H]3CCCN3C)nc3c2CCN(c2cccc4ccccc24)C3)C(CO)C1 (stereo partly specified)
GTPase KRas
  IC50: 4.53 µM

## C=CC(=O)N1CCN(c2nc(OC[C@@H]3CCCN3C)nc3c2CCN(c2cccc4ccccc24)C3)C(CCO)C1 (stereo partly specified)
GTPase KRas
  IC50: 4.84 µM

## C=CC(=O)N1CCN(c2nc(OC[C@@H]3CCCN3C)nc3c2CCN(c2cccc4ccccc24)C3)C(CC#N)C1 (stereo partly specified)
GTPase KRas
  IC50: 3.32 µM

## C=CC(=O)N1CCN(c2nc(OC[C@@H]3CCCN3C)nc3c2CCN(c2c(C(C)C)ccc4[nH]ncc24)C3)CC1
GTPase KRas
  IC50: 1.18 µM

## C=CC(=O)N1CCN(c2nc(OC[C@@H]3CCCN3C)nc3c2CCN(c2cccc4ccccc24)C3)C[C@@H]1CC#N
GTPase KRas
  IC50: 0.01 µM
[8]
  fIC50: 200 nM
[4]
  half-life at 1 µM: 4 h
[9]
  hepatic extraction ratio at 2 h, 10 µM: 0.9
[10]
  Ratio: 28
[11]
  solubility: 0.8 mg/mL (≈ 1450 µM)
[12]
  Papp: 22 nm/s
[13]
  fraction unbound: 0.05
[14]
  fraction unbound: 0.05
[15]
  hepatic extraction ratio: 0.45

## C=CC(=O)N1CCN(c2nc(OC[C@@H]3CCCN3C)nc3c2CCN(c2cccc4ccccc24)C3)CC1CC#N (stereo partly specified)
GTPase KRas
  IC50: 0.014 µM

## C=CC(=O)N1CCN(c2nc(OC[C@@H]3CCCN3C)nc3c2CCN(c2cccc4cccc(CC)c24)C3)C[C@@H]1CC#N
GTPase KRas
  IC50: 0.006 µM

## C=CC(=O)N1CCN(c2nc(OC[C@@H]3CCCN3C)nc3c2CCN(c2cccc4cccc(C(F)(F)F)c24)C3)C[C@@H]1CC#N
GTPase KRas
  IC50: 0.004 µM

## C=CC(=O)N1CCN(c2nc(OC[C@@H]3CCCN3C)nc3c2CCN(c2cc(O)cc4ccccc24)C3)CC1
[16]
  remaining at 2 h, 10 µM: 4%

## C=CC(=O)N1CCN(c2nc(OC[C@@H]3CCCN3C)nc3c2CCN(c2c(C(F)(F)F)ccc4[nH]ncc24)C3)CC1
GTPase KRas
  IC50: 0.351 µM
[9]
  hepatic extraction ratio at 2 h, 10 µM: < 0.55
[15]
  hepatic extraction ratio: < 0.55

## C=CC(=O)N1CCN(c2nc(OC[C@@H]3CCCN3C)nc3c2CCN(c2c(C)ccc4[nH]ncc24)C3)CC1
GTPase KRas
  IC50: 1.5 µM

## C=C(OC)C(=O)N1CCN(c2nc(OC[C@@H]3CCCN3C)nc3c2CCN(c2cccc4cccc(Cl)c24)C3)C[C@@H]1CC#N
GTPase KRas
  IC50: > 5 µM
[17]
  half-life at 5 µM: > 50 h
[18]
  half-life at 5 µM: > 50 h
[19]
  half-life at 5 µM: 40 h

## C=CC(=O)N1CCN(c2nc(OC[C@@H]3CCCN3C)nc3c2CCN(c2c(CC)ccc4[nH]ncc24)C3)CC1
GTPase KRas
  IC50: 1.08 µM

## C=CC(=O)N1CCN(c2nc(OC[C@@H]3CCCN3C)nc3c2CCN(c2cccc4ccccc24)C3)C[C@H]1CC#N
GTPase KRas
  IC50: 1.02 µM
[4]
  half-life at 1 µM: 1 h

## C=CC(=O)N1CCN(c2nc(OC[C@@H]3CCCN3C)nc3c2CCN(c2cccc4cccc(Cl)c24)C3)C[C@@H]1CC#N
[20]
  bioavailability: 4.12%
[21]
  half-life: 0.826 h
[22]
  Vd: 7.91 L/kg
[23]
  Tmax: 0.833 h
MIA PaCa-2 [24]
  Activity: 100%
[25]
  Drug metabolism: Metabolite detected
[17]
  half-life at 5 µM: 5 h
[5]
  Vd: 0.867 L/kg
[26]
  bioavailability: 16.9%
[27]
  Cmax: 0.0163 µg/mL
MIA PaCa-2 [28]
  Activity: 100%
[29]
  AUC(0-inf): 0.0319 µg·h/mL
[30]
  AUC(0-inf): 2.27 µg·h/mL
[31]
  Tmax: 0.25 h
[7]
  half-life: 0.496 h
[18]
  half-life at 5 µM: 2 h
[32]
  Cmax: 2.46 µg/mL
[33]
  clearance: 2.24 L/h/kg
[19]
  half-life at 5 µM: 14 h
[34]
  Activity: > 90%
[35]
  Activity: 70%
[36]
  Activity: 89%
[37]
  clearance: 13.5 L/h/kg

## C=CC(=O)N1CCN(c2nc(OC[C@@H]3CCCN3C)nc3c2CCN(c2cccc4cccc(OC)c24)C3)C[C@@H]1CC#N
GTPase KRas
  IC50: 0.022 µM

## CN1CCC[C@H]1COc1nc2c(c(N3CCN(C(=O)/C=C/CF)[C@@H](CC#N)C3)n1)CCN(c1cccc3cccc(Cl)c13)C2
GTPase KRas
  IC50: 0.003 µM
[17]
  half-life at 5 µM: 11 h
[18]
  half-life at 5 µM: 9 h
[19]
  half-life at 5 µM: > 50 h

## COC/C=C/C(=O)N1CCN(c2nc(OC[C@@H]3CCCN3C)nc3c2CCN(c2cccc4cccc(Cl)c24)C3)C[C@@H]1CC#N
GTPase KRas
  IC50: 0.009 µM
[17]
  half-life at 5 µM: 11 h
[18]
  half-life at 5 µM: 22 h
[19]
  half-life at 5 µM: > 50 h

## C=CC(=O)N1CCN(c2nc(OC[C@@H]3CCCN3C)nc3c2CCN(c2cccc4ccccc24)C3)CC1CCO (stereo partly specified)
GTPase KRas
  IC50: > 5 µM

## C=CC(=O)N1CCN(c2nc(OC[C@@H]3CCCN3C)nc3c2CCN(c2c(C)c(C)cc4[nH]ncc24)C3)CC1
GTPase KRas
  IC50: 0.254 µM
[9]
  hepatic extraction ratio at 2 h, 10 µM: < 0.55
[15]
  hepatic extraction ratio: < 0.55

## C=CC(=O)N1CCN(c2nc(OC[C@@H]3CCCN3C)nc3c2CCN(c2cccc4cccc(C)c24)C3)C[C@@H]1CC#N
[20]
  bioavailability: 3.67%
[21]
  half-life: 0.966 h
[22]
  Vd: 6.16 L/kg
GTPase KRas
  IC50: 0.001 µM
[23]
  Tmax: 1.17 h
MIA PaCa-2 [24]
  Activity: 100%
[25]
  Drug metabolism: Metabolite detected
[5]
  Vd: 1.91 L/kg
[26]
  bioavailability: 31.1%
[27]
  Cmax: 0.0178 µg/mL
MIA PaCa-2 [28]
  Activity: 100%
[29]
  AUC(0-inf): 0.0395 µg·h/mL
[30]
  AUC(0-inf): 4.91 µg·h/mL
[31]
  Tmax: 0.5 h
[7]
  half-life: 1.33 h
[32]
  Cmax: 1.66 µg/mL
[33]
  clearance: 1.9 L/h/kg
[34]
  Activity: 80%
[35]
  Activity: 20%
[36]
  Activity: 60%
[37]
  clearance: 9.06 L/h/kg

## C=CC(=O)N1CCN(c2nc(OC[C@@H]3CCCN3C)nc3c2CCN(c2cccc4ccccc24)C3)CC1CO (stereo partly specified)
GTPase KRas
  IC50: 4.63 µM

## C=CC(=O)N1CCN(c2nc(OC[C@@H]3CCCN3C)nc3c2CCN(c2cccc4cccc(C#N)c24)C3)C[C@@H]1CC#N
GTPase KRas
  IC50: 0.064 µM
